# Columns and labels:
# HeLa cells = test: Flow cytometry of total TAMRA-R8 uptake; assay type: cell-based; settings: for mean_of_medians: Extended Data Fig.5a, mean of n = 3
# Protocol: HeLa cells were seeded at 10,000 cells per well in 96-well plates. The next day, they were incubated for 1 h with the indicated compounds diluted in HKR. Cells were subsequently washed for 5 min with HKR containing 0.1 mg ml^−1 heparin, washed again with HKR and trypsinized. Trypsin was neutralized with PBS containing 2% FBS and 5 mM EDTA. TAMRA fluorescence was excited with a green laser (532 nm) and measured on a Guava easyCyte BG HT collecting the emission at 620/52 nm (Orange-G channel) and using InCyte v.3.2 (GuavaSoft, Millipore). Data were analysed with R (v.4.0.3)[54] and the packages CytoExploreR (v.1.0.8)[56] and ggcyto (v.1.18.0)[57] Cells with typical FSC and SSC parameters were selected and the median fluorescence intensity calculated for each sample. Each condition was measured in triplicate.
# Cells were incubated with 1 µM peptide, in the absence or presence of 10 µM cluster for 1 h. […] After medium removal and solubilization with DMSO, the absorbance at 570 nm was measured. Values were normalized to the untreated cell control (100%). Data are mean ± s.d. of three replicates. Source data
# [1] = Carboxyfluorescein (CF) leakage assay, anionic vesicles; settings: anionic liposomes DMPE/DPPG/CHOL 1/2/1, 13 µM phospholipids, 10 mM Tris, 140 mM NaCl, pH 7.4; CF fluorescence; Hill analysis; read-out: EC50 membrane-disrupting activity (CF leakage)
# Protocol: A thin lipid film was prepared by evaporating a lipid solution with a stream of nitrogen and then dried in vacuo overnight. For the zwitterionic vesicles, 25 mg EYPC in 1 ml of CHCl3 was used, and for the anionic vesicles, DMPE/DPPG/CHOL (4.4/10.4/2.6 mg, 1/2/1 molar ratio) in a 1:1 mixture of CHCl3 and MeOH (1 ml) was used. […]
# For leakage experiments with the lipid⊃CF vesicles, stock solutions (6 µl) were diluted with the respective buffer in a disposable plastic cuvette and gently stirred (total volume 2,000 µl, final lipid concentration 13 µM). CF fluorescence was monitored at λem = 517 nm (λex = 492 nm) as a function of time after addition of the respective activating or disrupting agent (cluster, WR7 or pyrenebutyrate) at 50 s, and Triton X-100 (24 µl 1.2% (wt/vol)) at 600 s, the latter to lyse the vesicles, for calibration. Fluorescence intensities were normalized to fractional emission intensity as I(t) = (It − I0)/(I∞ − I0), where I0 = It before disrupting agent addition and I∞ = It after Triton X-100 lysis. […]
# Extended Data Fig. 1 Assays testing for stability vs leakage of the vesicles. a, Response of the HPTS/DPX assay towards a membrane-disrupting agent and chemical structures of the fluorescent dye HPTS and the quencher DPX. In this assay, large unilamellar vesicles are loaded with the HPTS/DPX probe/quencher pair, such that the fluorescence of HPTS is quenched. […]
# [2] = U-tube transport experiment across a bulk chloroform layer; settings: trans: 2 mM HPTS, pH 7.4
# Excerpt: U-tube transport experiments, across a bulk chloroform layer, unambiguously confirmed that the brominated cluster served as a non-covalent carrier across a hydrophobic bulk barrier (Extended Data Fig. 2a, b). To quantitatively characterize the transport efficiency of the new cluster carriers, the normalized fluorescence responses in the vesicle experiments (Fig. 2b) were plotted against cluster concentration to produce dose–response curves (Fig. 2c and Extended Data Fig. 3a). […] This activity rivals the pyrenebutyrate (1) gold standard in the field (Ea ≈ 5)[18], which we used throughout as a control.
# The U-tubes were home-made, similarly to those of Rebek and co-workers[52] and Matile and co-workers[19], and consisted of a small beaker with a central glass barrier separating the two aqueous phases, namely cis ([…]) and trans (receiving phase), but enabling the placement of an interfacing chloroform layer below the cis and trans phases. A 3 ml portion of CHCl3 was located in the U-tube and 1 ml of the cis and trans phases were added. The organic phase was stirred at 700 r.p.m. at room temperature. Aliquots (20 μl) from the aqueous trans phase were taken at different times, diluted to 450 μl with buffer (10 mM Tris, 107 mM NaCl, pH 7.4) and measured by fluorescence. […]
substance,measurement,setting,value
B12Br12^2−,mean_of_medians,"HeLa cells; 10 uM cluster, Tm-R8 0 uM",56.9232
same,mean_of_medians,"HeLa cells; 10 uM cluster, Tm-R8 1 uM",648.983
same,mean_of_medians,"HeLa cells; 50 uM cluster, Tm-R8 0 uM",50.2824
same,mean_of_medians,"HeLa cells; 50 uM cluster, Tm-R8 1 uM",905.363
same,Enhancement of total TAMRA-R8 uptake (flow cytometry),"HeLa cells; HeLa, 1 µM TAMRA-R8, 10 or 50 µM cluster, 1 h",most active carrier
same,EC50,[1],960 ± 100 µM
same,"Transport of DPX across chloroform, without peptide cargo",[2]; cis: 40 μM cluster and 20 mM DPX,faster and more efficient transport of DPX
same,"Transport of DPX across chloroform, with peptide cargo","[2]; cis: 40 μM cluster, 20 μM WR7, 20 mM DPX, 10 mM Tris, 107 mM NaCl, HPTS quenching",the fastest and most efficient transport of DPX

# From paper PMC8942850, “Boron clusters as broadband membrane carriers” (Nature, 2022)
